# Reference: publication PMC3544154 (Nature communications, 2011)
# System: neuroligin-1 induced synaptogenesis
# Test: Synapse microarray coculture assay: NLG1-induced synapsin clustering
# Format: cell-based, rat
# Settings: for activity in coculture assay / NLG1-induced synaptogenesis (in words): synapse microarray, no single concentration stated
Compound,activity in coculture assay / NLG1-induced synaptogenesis (in words),effect on NLG1-induced synaptogenesis (in words) (10 μM)
CCC(=O)CCCCC[C@@H]1NC(=O)[C@H]2CCCCN2C(=O)[C@H]([C@@H](C)CC)NC(=O)[C@H](Cc2cn(OC)c3ccccc23)NC1=O [apicidin],greater potency than MS-275,
O=C(CCCCCN1C(=O)c2cccc3cccc(c23)C1=O)NO [scriptaid],potent,
Cc1[nH]c2ccccc2c1CCNCc1ccc(/C=C/C(=O)NO)cc1 [LBH-589],potent,
CCCC(CCC)C(=O)O [valproic acid],,"neither of the two compounds, valproic acid and phenylbutyric acid, affected synaptogenesis"
